Results on three molecules are retold here after article PMC5554537 (Frontiers in Pharmacology, 2017).

The structures appear in SMILES notation. Read-outs that look alike come from different tables or passages of the source.

Details of data set [1]: method as in Anderson et al., 2014. The note with it: ref Anderson et al., 2014; cited from earlier work.
Data set [2] deals with NIH-III mice. The data set can be described thus: Mouse toxicity: MTD, survival and body weight loss after single i.p. doses. The class given is in vivo. The conditions noted are these: for Survival: 14 days. The text has this: (§1) Mouse toxicity SN30000 and metabolites M14 and M18: survival and body weight loss following single i.p. doses to NIH-III mice.
(§2) Cmpd Dose Body weight nadir Body weight nadir
(§3) (µmol/kg) Survivala Survivala
(§4) Day Weight loss (%)b Day Weight loss (%)b […]
(§5) a Survival reported as a fraction of total nu mber of animal treated at a giv en dose, with an observation time of 14 days. Deaths were predominantly due to humane ter mination because of persistent clinical signs or body weight loss > 15% of pretreatment values. b Body weig ht loss at nadir, relative to pre-treatment values. Values are mean and errors are […]
(§6) c Data from Gu et al., 2014 d Mouse died <24 hr after dosing.

Experiment in data set [3]: as above
The class given is in vivo, NIH-III mice. The note with it: mouse, in vivo, ip, NIH-III mice; for MTD at 14 days: both sexes, single i.p. dose.
Text: as §1, §2, §3, §4, §5, §6

In another data set the test system is SiHa cells. The data set is described as follows: Oxygen consumption rate, Seahorse XFe96 analyser. The conditions noted are these: 200 µM, mitochondrial stress test. The class given is cell-based, human. The procedure:
(OCR) of the human cervical carcinoma cell line SiHa and a previously described (Guise et al., 2007) POR-overexpressing transfectant SiHa/POR, determined using a Seahorse XFe96 Analyser (Agilent). Cells were passaged in αMEM plus 5% FCS, with 1 µM puromycin to maintain POR expression in the SiHa/POR cell line. Cells were ty pically seeded at 4×10^4 cells/well in Seahorse 96 well plates (without puromycin) and ~ 18 hr later the medium was changed to Seahorse medium with 10 mM glucose and 2 mM glutamine (SMGG) adjusted to pH 7.35 (150 µl/well). Plates were degassed to remove CO2, and inhibitors were added serially using the Seahorse injectors (25 µl/injection) with rotenone (final concentration 0.5 µM) typically added at the start of the 30 min equilibration in the flux analyser. OCR was monitored for three 3 min periods following each drug addition. […]
injection 1 and at each subsequent injection to maintain concentrations at 200 µM continuously during the test. The control received equivalent injections of SMGG without drugs. In all cases (including controls), injection 2 added oligomycin to give 0.5 µM, injection 3 added carbonyl cyanide […] (FCCP) to 0.5 µM, and injection 4 added rotenone and antimy cin to 1 µM each. V alues are means and errors are standard deviations, for 6 replicate cultures. […]
suppressed by M14, both in the presence (injection 1) and absence (injection 4) of respiratory […]
presence or absence of 0.5 µM rotenone when SN30000 is added cumulatively to give the indicated concentrations. Values are means and SEM for 5 replicate cultures. The fall in OCR after transient stimulation at each addition of SN30000 is consistent with the pattern for CHO/POR cells in Supplementary Fig. 4A.
C: Concentration dependence of increases in OCR by SiHa/POR cells, measured at the first […]
effects noted above. Left panel: SN30000. Right panel: TPZ. Values are means and errors are […]

In the next data set the test system is CHO/POR cells. The data set can be described thus: Redox cycling: non-respiratory O2 consumption and H2O2 generation. The conditions noted are these: rotenone-inhibited aerobic CHO/POR cells, cumulative addition. The class given is cell-based. As for the experimental part:
The Chinese hamster ovary cell line 51D1.3 (herein called CHO) and a stable transfectant expressing a soluble form of human P450 oxidoreductase (51D1.3/sPOR, herein called CHO/POR) ([Gu et al., 2009]), were grown in spinner flasks in αMEM plus 5% fetal bovine serum. Late log phase cultures were harvested by centrifugation, resuspended at 5 × 10^5 cells/mL in phenol red-free high-glucose DMEM (Invitrogen) supplemented with 4 mM Glutamax-1, 1 mM sodium pyruvate and 5% FBS. Stirred cell suspensions (2 mL) were transferred to an OXYBOROS O2K oxygraph for simultaneous polarographic measurement of non-respiratory O2 consumption and fluorimetric measurement of H2O2 generation as previously ([Hunter et al., 2012]). Bovine liver superoxide dismutase (10 U), horseradish peroxidase (10 U), Amplex UltraRed (50 nmol) and rotenone (1 nmol), all from Molecular Probes Invitrogen (Eugene, OR), were injected and cumulative drug additions (from saline stock solutions) were made every ∼5 min once endogenous rates had stabilized. Signals were recorded every 2 s, and flux derivatives were estimated ∼2 min after each addition using a Savitzky–Golay smoothing filter (40 data point window) in DATLAB version 4.3.
Supplementary Figure 4. Time-dependent changes in oxy gen consu mption and H2O2 formation rates induced by SN30000 in rotenone-inhibited CHO/POR cell suspensions, monitored with an OXYBOROS O2K oxygraph. Conditions of the experiment were identical to Fig. 5 except that SN30000 was added as a single bolus to separate cell suspension, rather than by cu mulative addition. A: Representative traces for oxygen consu mption and H2O2 formation rates for a single culture when SN30000 was added to a final concentration of 600 µM, at 4 min. Peak rates were established within 2 min, followed by a decline to a new steady state at approximately 1/3rd of the maximu m rate. Cell viability was > 97% by try pan […]
killing. […]

Data set [4] concerns NIH-III mice. Also on record: method as in Gu et al., 2014. The note with it: ref Gu et al., 2014, cited from earlier work; for Survival: 14 days.

Regarding `[O-][n+]1nc(CCCN2CCOCC2)nc2cc3c(cc21)CCC3` [M14], the “One-electron reduction potential, lower than SN30000 by” value in data set [1] is given as 70 mV. Also, the “Body weight nadir, Day” value came out at 3 in the data set with NIH-III mice [2] (female, 562 µmol/kg i.p.); 1 in the data set on NIH-III mice [2] (male, 562 µmol/kg i.p.); 1 with NIH-III mice [2] (male, 1000 µmol/kg i.p.). Moreover, the “Body weight nadir, Weight loss” value in the data set on NIH-III mice [2] (female, 562 µmol/kg i.p.) was found to be 2.6 ± 0.4%; in the data set with NIH-III mice [2] (male, 562 µmol/kg i.p.) it was 0.7 ± 0.5%; in the data set with NIH-III mice [2] (male, 1000 µmol/kg i.p.) it was 2.0%. Further, the Survival with NIH-III mice [2] (female, 562 µmol/kg i.p.) is given as 3/3; with NIH-III mice [2] (female, 750 µmol/kg i.p.), 0/1; in the data set with NIH-III mice [2] (male, 562 µmol/kg i.p.), 3/3; in the data set on NIH-III mice [2] (male, 750 µmol/kg i.p.) it was 0/2; in the data set on NIH-III mice [2] (male, 1000 µmol/kg i.p.), 1/1. The MTD at 14 days in data set [3] is 562 µmol/kg; in data set [3] (equivalent to 562 μmol/kg), 177 mg/kg. Further, the MTD at 2 weeks in data set [3] (as stated for the temperature study (Figure 4)) was determined as 135 mg/kg. The “Effect on oxygen consumption rate (OCR)” value in the data set with SiHa cells is given as “suppressed”. Further, the “Non-respiratory O2 consumption and H2O2 generation (redox cycling)” value in the data set with CHO/POR cells is recorded as “much lower rates than for SN30000”.

In the case of `O=C(O)CCc1nc2cc3c(cc2[n+]([O-])n1)CCC3` [M18], in the data set with NIH-III mice [2] (female, 562 µmol/kg i.p.), the “Body weight nadir, Weight loss” value is given as “No decrease in body weight” and the Survival is 3/3.

With `[O-][n+]1nc(CCCN2CCOCC2)[n+]([O-])c2cc3c(cc21)CCC3` [SN30000, 3-(3-Morpholinopropyl)-7,8-dihydro-6H-indeno[5,6-e][1,2,4]triazine 1,4-dioxide], the Survival is listed as 6/6 with NIH-III mice [4] (female, 562 µmol/kg i.p.); 1/2 in the data set on NIH-III mice [4] (female, 750 µmol/kg i.p.); 0/1 in the data set with NIH-III mice [4] (female, 1000 µmol/kg i.p.); 7/7 in the data set with NIH-III mice [4] (male, 562 µmol/kg i.p.); 2/3 in the data set with NIH-III mice [4] (male, 750 µmol/kg i.p.); 1/2 with NIH-III mice [4] (male, 1000 µmol/kg i.p.). Moreover, the Survival in the data set on NIH-III mice [4] (male, 1333 µmol/kg i.p.) is on record as 1/2. Besides, the “Body weight nadir, Day” value in the data set on NIH-III mice [4] (female, 562 µmol/kg i.p.) is recorded as 1; in the data set on NIH-III mice [4] (female, 750 µmol/kg i.p.) it was 2; with NIH-III mice [4] (male, 562 µmol/kg i.p.), 1; with NIH-III mice [4] (male, 750 µmol/kg i.p.), 1; in the data set on NIH-III mice [4] (male, 1000 µmol/kg i.p.), 1; with NIH-III mice [4] (male, 1333 µmol/kg i.p.) it was 1. The “Body weight nadir, Weight loss” value is 8.4 ± 1.7% in the data set with NIH-III mice [4] (female, 562 µmol/kg i.p.); 14.4% with NIH-III mice [4] (female, 750 µmol/kg i.p.); 4.2 ± 1.2% in the data set with NIH-III mice [4] (male, 562 µmol/kg i.p.); 12.1 ± 3.8% with NIH-III mice [4] (male, 750 µmol/kg i.p.); 13.3% in the data set on NIH-III mice [4] (male, 1000 µmol/kg i.p.); 11.6% in the data set on NIH-III mice [4] (male, 1333 µmol/kg i.p.). For the same molecule, the MTD at 14 days in data set [3] is 562 µmol/kg; in data set [3] (equivalent to 562 μmol/kg), 186 mg/kg. Besides, the “Effect on oxygen consumption rate (OCR)” value in the data set on SiHa cells is “increased”. Moreover, the “Non-respiratory O2 consumption and H2O2 generation (redox cycling)” value in the data set on CHO/POR cells is “strongly stimulated O2 consumption and H2O2 formation”.
